The source made the active and inactive calls.
Assays:
Format in all cases: cell-based
[1] = target: Transcription factor p65 (Homo sapiens) (UniProt Q04206); assay: Inhibition of TNF-alpha-induced Rel-A phosphorylation at Ser536 in human MDA-MB-231 cells after 60 mins by immunoblot analysis
[2] = target: Inhibitor of NF-kappa-B kinase alpha/beta (Homo sapiens) (UniProt O14920+O15111); assay: Inhibition of TNF-alpha-induced IKKalpha/beta phosphorylation at Ser176/180 in human MDA-MB-231 cells after 20 mins by immunoblot analysis
[3] = target: Transcription factor p65 (Homo sapiens) (UniProt Q04206); assay: Inhibition of TNF-alpha-induced Rel-A nuclear translocation in human MDA-MB-231 cells assessed as decrease in Rel-A phoshorylation at Ser536 at 20 uM pretreated for 30 mins prior to TNF-alpha stimulation measured after 60 mins by immunofluorescence microscopic analysis

Measured: inhibition

Transcription factor p65 (Homo sapiens), sequence (Q04206 whole entry): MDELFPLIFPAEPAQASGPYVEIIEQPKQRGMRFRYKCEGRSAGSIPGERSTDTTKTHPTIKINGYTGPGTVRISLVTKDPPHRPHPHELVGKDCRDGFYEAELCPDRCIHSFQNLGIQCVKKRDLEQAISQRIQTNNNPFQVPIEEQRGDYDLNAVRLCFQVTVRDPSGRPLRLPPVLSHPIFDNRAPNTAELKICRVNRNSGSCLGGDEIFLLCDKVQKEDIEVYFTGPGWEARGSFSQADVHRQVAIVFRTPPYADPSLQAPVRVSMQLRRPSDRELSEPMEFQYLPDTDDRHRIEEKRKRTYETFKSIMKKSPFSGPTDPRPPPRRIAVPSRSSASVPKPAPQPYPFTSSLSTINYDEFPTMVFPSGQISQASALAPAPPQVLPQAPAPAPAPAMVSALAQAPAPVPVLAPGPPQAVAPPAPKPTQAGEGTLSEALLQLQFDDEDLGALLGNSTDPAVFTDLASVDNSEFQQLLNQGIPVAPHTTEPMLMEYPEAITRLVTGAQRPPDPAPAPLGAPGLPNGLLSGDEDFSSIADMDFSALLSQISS

O=C(/C=C/c1ccccc1)c1ccc2ccccc2c1O
active: [1] Dose-dependent effect | [2] Dose-dependent effect | [3]
